Experimental data as given in EP4410314A1, “COMBINATION THERAPY COMPRISING ANTI-CD22 ANTIBODY-DRUG CONJUGATE AND IRAK1 INHIBITOR” (ADC Therapeutics SA, priority 2023, dated 2024).

Experiments:
Daudi = test: In vitro cytotoxicity, Daudi; assay type: cell-based, human; conditions: Daudi (BL), CD22-positive; mean ± SEM
NAMALWA = test: In vitro cytotoxicity, NAMALWA; assay type: cell-based, human; conditions: NAMALWA (BL), CD22-positive; mean ± SEM
Ramos = test: In vitro cytotoxicity, Ramos; assay type: cell-based, human; conditions: Ramos (BL), CD22-positive; mean ± SEM
DO HH-2 = test: In vitro cytotoxicity, DO HH-2; assay type: cell-based, human; conditions: DO HH-2 (FL), CD22-positive; mean ± SEM
GRANTA-519 = test: In vitro cytotoxicity, GRANTA-519; assay type: cell-based, human; conditions: GRANTA-519 (MCL), CD22-positive; mean ± SEM
MEC-2 = test: In vitro cytotoxicity, MEC-2; assay type: cell-based, human; conditions: MEC-2 (CLL), CD22-positive; mean ± SEM
NALM-6 = test: In vitro cytotoxicity, NALM-6; assay type: cell-based, human; conditions: NALM-6 (B-ALL), CD22-positive; mean ± SEM
REH = test: In vitro cytotoxicity, REH; assay type: cell-based, human; conditions: REH (B-ALL), CD22-positive; mean ± SEM
SEM cells = test: In vitro cytotoxicity, SEM; assay type: cell-based, human; conditions: SEM (B-ALL), CD22-positive; mean ± SEM
KM-H2 = test: In vitro cytotoxicity, KM-H2; assay type: cell-based, human; conditions: KM-H2 (HL), CD22-negative; mean ± SEM
SUP-T1 = test: In vitro cytotoxicity, SUP-T1; assay type: cell-based, human; conditions: SUP-T1 (T-LL), CD22-negative; mean ± SEM
KARPAS-299 [1] = test: In vitro cytotoxicity, KARPAS-299; assay type: cell-based, human; conditions: KARPAS-299 (ALCL), CD22-negative; mean ± SEM
Ramos cells = test: DNA interstrand crosslinks, single cell gel electrophoresis (Comet) assay, Ramos; assay type: cell-based, human
Protocol: (§1) Quantification of in vitro DNA interstrand crosslinks (ICLs) was performed using the single cell gel electrophoresis (Comet) assay.
(§2) DNA ICLs were measured using a modification of the single-cell gel electrophoresis (Comet) assay, and crosslinking was expressed as the percentage decrease in Olive tail moment (OTM) versus control irradiated cells. […] Immediately after the drug incubation period, a low level of ICLs (3%) was observed, which increased over time to near peak levels (≈50%) at 12 hours and persisted up to 48 hours. […] In this cell line, SG3199 produced a high level of ICL (≈50%), similar to that observed in the Ramos cell line.

KARPAS-299 [2] = test: DNA interstrand crosslinks, single cell gel electrophoresis (Comet) assay, KARPAS-299; assay type: cell-based, human; conditions: KARPAS-299 (CD22-negative), over 48 hours following a 2-hour treatment
Protocol: as §1, §2

CD22 = CD22 cell surface expression after chidamide treatment, flow cytometry; assay type: cell-based; conditions: chidamide 0.25 or 0.5 µM for 7 days; Ramos, TMD8, and SU-DHL-4 cell lines
Protocol: Chidamide (Selleckchem) was dissolved in dimethyl sulfoxide (DMSO) according to the manufacturer's instructions. Cells were treated with chidamide (0.25 or 0.5 µM) for 7 days at 37°C in a 5% carbon dioxide-gassed, humidified incubator. On day 3, cells were centrifuged, and fresh medium containing the corresponding concentrations of chidamide was added. The control group was treated with equal volumes of DMSO.
CD22 cell surface expression after chidamide treatment was measured by flow cytometry. hLL2-C220 and B12 antibodies, followed by Alexa Fluor 488 anti-human secondary antibodies (Life Technologies, Thermo Fisher Scientific) or allophycocyanin anti-human secondary antibodies (BioLegend), were used for CD22 detection. Cells were analyzed using a CytoFLEX Flow Cytometer (Beckman Coulter), and data were analyzed with FlowJo software version 10.8.1 (BD Biosciences).

Row | Structure (SMILES) | IC50 (Daudi) | IC50 (NAMALWA) | IC50 (Ramos) | IC50 (DO HH-2) | IC50 (GRANTA-519) | IC50 (MEC-2) | IC50 (NALM-6) | IC50 (REH) | IC50 (SEM cells) | IC50 (KM-H2) | IC50 (SUP-T1) | IC50 (KARPAS-299 [1]) | DNA ICLs, percentage decrease in Olive tail moment (OTM) versus control irradiated cells (Ramos cells; 2-hour exposure, immediately after the drug incubation period) | DNA ICLs, percentage decrease in Olive tail moment (OTM) versus control irradiated cells (Ramos cells; after 2 hours following drug incubation) | persistence of DNA ICLs (Ramos cells; following 2-hour exposure) | DNA ICLs, percentage decrease in Olive tail moment (OTM) versus control irradiated cells (KARPAS-299 [2]) | increase of CD22 expression compared with DMSO-treated cells (MFI fold change) (CD22)
1 | COc1cc2c(cc1OCCCCCOc1cc3c(cc1OC)C(=O)N1C=C(C)C[C@H]1C=N3)N=C[C@@H]1CC(C)=CN1C2=O [SG3199] | 0.008 ± 0.001 nM | 0.014 ± 0.001 nM | 0.016 ± 0.001 nM | 0.007 ± 0.001 nM | 0.002 nM | 0.033 ± 0.009 nM | 0.002 nM | 0.001 nM | 0.005 ± 0.002 nM | 0.036 ± 0.005 nM | 0.026 ± 0.005 nM | 0.025 ± 0.001 nM | 46% | 56% | up to 48 hours | ≈ 50% | 
2 | Nc1cc(F)ccc1NC(=O)c1ccc(CNC(=O)/C=C/c2cccnc2)cc1 [chidamide] |  |  |  |  |  |  |  |  |  |  |  |  |  |  |  |  | up to 2.4 times
